Earlier results on 31 compounds are cited in patent US6761903B2, “Clear oil-containing pharmaceutical compositions containing a therapeutic agent” (Lipocine, Inc., priority 1999, dated 2004).

For the data set the following is noted: as reported by the manufacturer of the commercial product, rough average or inventors' judgment.
Take “1,2 and 1,3-diolein [1,2 and 1,3-diolein (C18:1)]”: the HLB is less than 10. As to `CCCCC/C=C\C/C=C\CCCCCCCC(=O)OCC` [Ethyl linoleate], the HLB is recorded as less than 10. On to `CCCCCCCC/C=C\CCCCCCCC(=O)OCC` [Ethyl oleate], for which the HLB is less than 10. For the compound `CCCCC/C=C\C/C=C\CCCCCCCC(=O)OCC(O)CO` (stereo not shown) [Glycerol monolinoleate], the HLB was 3-4. Take `CCCCCCCCCCCCCCCC(=O)OCC(O)CO` (stereo not shown) [Glycerol monopalmitate]: the HLB was 4.

`CCCCCCCCCCCCCCCCCC(=O)OCC(O)CO` (stereo not shown) [Glycerol monostearate]: the HLB is listed as 5-9. Take `CC(=O)OCC(O)CO` (stereo not shown) [Glyceryl acetate]: the HLB is given as less than 10. With `CCCCCCCC(=O)OCC(O)CO` (stereo not shown) [Glyceryl caprylate], the HLB is 5-6. On to `CCCCCCCCCCCC(=O)OCC(O)CO` (stereo not shown) [Glyceryl laurate], for which the HLB is 4. As for `CCCCCCCCCCCC(=O)OCC(O)CO` (stereo not shown) [Glyceryl monolaurate], the HLB was 6.8. Regarding `CCCCCCCCCCCCCC(=O)OCC(O)CO` (stereo not shown) [Glyceryl monomyristate (C14), Glyceryl monomyristate], the HLB is 3-4. With `CCCCCCCC/C=C\CCCCCCCC(=O)OCC(O)CO` (stereo not shown) [Glyceryl monooleate (C18:1), Glyceryl monooleate], the HLB was 3-4. For `CCCCCCCCCCCCCCCCCC(=O)OCC(O)CO` (stereo not shown) [Glyceryl monostearate], the HLB was 4.4. For the compound `CCCCCC[C@@H](O)C/C=C\CCCCCCCC(=O)OCC(O)CO` (stereo partly shown) [Glyceryl ricinoleate], the HLB is 6. For `CCCCC/C=C\C/C=C\CCCCCCCC(=O)OC(C)C` [Isopropyl linoleate], the HLB is given as less than 10. Turning to `CCCCCCCCCCCCCC(=O)OC(C)C` [Isopropyl myristate], the HLB is on record as less than 10.

With `CCCCCCCCCC(=O)OCC(O)CO` (stereo not shown) [Monocaprin], the HLB is on record as less than 10. `CCCCCC(=O)OCC(O)CO` (stereo not shown) [Monocaproin (C6), Monocaproin]: the HLB was less than 10. For `CCCCCCCC(=O)OCC(O)CO` (stereo not shown) [Monocaprylin], the HLB is less than 10. On to `CCCCCCCC/C=C/CCCCCCCC(=O)OCC(O)CO` (stereo not shown) [Monoelaidin (C18:1), Monoelaidin], for which the HLB is reported as less than 10. Take `CCCCCCCCCCCC(=O)OCC(O)CO` (stereo not shown) [Monolaurin]: the HLB is less than 10. As for `CCCCCC/C=C\CCCCCCCC(=O)OCC(O)CO` (stereo not shown) [Monopalmitolein (C16:1), Monopalmitolein], the HLB is on record as less than 10. For the compound `CCCCCCCCCCCCCCCCCC(=O)OCCO` [PEG-1 stearate], the HLB was 2.

Consider `CCCCCCCCCCCCOCCOCCOCCOCCO` [PEG-4 lauryl ether], for which the HLB is on record as 9.7. With `CCCCCCCCCCCCCCCCCC(=O)OCC(CO)(CO)COC(=O)CCCCCCCCCCCCCCCCC` [Pentaerythrityl distearate], the HLB was less than 10.

For `CCCCCCCC/C=C\CCCCCCCC(=O)OCC(COC(=O)CCCCCCC/C=C\CCCCCCCC)(COC(=O)CCCCCCC/C=C\CCCCCCCC)COC(=O)CCCCCCC/C=C\CCCCCCCC` [Pentaerythrityl tetraoleate], the HLB is recorded as less than 10.

Take `CCCCCCCCCCCCCCCCCC(=O)OCC(COC(=O)CCCCCCCCCCCCCCCCC)(COC(=O)CCCCCCCCCCCCCCCCC)COC(=O)CCCCCCCCCCCCCCCCC` [Pentaerythrityl tetrastearate]: the HLB is less than 10.

For `CCCCCCCCCC(=O)OCC(C)OC(=O)CCCCCCCCC` (stereo not shown) [Propylene glycol dicaprate], the HLB is greater than 6. For the compound `CCCCCCCCCCCC(=O)OCC(C)OC(=O)CCCCCCCCCCC` (stereo not shown) [Propylene glycol dilaurate], the HLB is given as greater than 6. Regarding `CCCCCCCC(=O)OCC(C)OC(=O)CCCCCCC` (stereo not shown) [Propylene glycol dioctanoate], the HLB was greater than 6. As to `CCCCCCCCCCCCCCCCCC(=O)OCC(C)OC(=O)CCCCCCCCCCCCCCCCC` (stereo not shown) [Propylene glycol distearate], the HLB was greater than 6.
